Columns and labels:
[1] = system: HER2 overexpressed gastric cancer cell line NCI-N87; experiment: Cytotoxic activity (in vitro), CellTiter-Glo viable cell count; format: cell-based; conditions: Homo sapiens, NCI-N87, 72 h, NCI-N87, cultured for 72 hours
Method: The cytotoxic activity of a compound of the present invention was investigated using a HER2 overexpressed gastric cancer cell line NCI-N87. Specifically, an appropriate amount of cells was seeded into a 96-well plate for cell culture at 50 μL/well, and precultured overnight at 37° C. under 5% —CO2 condition. A solution of a test compound in DMSO with dilution series was diluted with medium, and added to the precultured cells at the volume of 50 μL/well. The mixture was prepared such that the final concentration of DMSO became 0.1%. After the mixture was cultured for 72 hours at 37° C. under 5% —CO2 condition, 100 μL/well of CellTiter-Glo solution (Promega, Madison, Wis.) was added, the luminescence was measured using a luminometer (Wallac ARVO™ SX) 10 minutes later, and the viable cell count was determined.

[2] = target: T1, purified human recombinant HER2 kinase (Lys676-Val1255, GST fusion) (Homo sapiens, UniProt P04626); experiment: HER2 kinase enzyme inhibitory activity (HTRF); format: biochemical; conditions: 200 μM ATP, FLT3 analogous peptide substrate, 60 minutes at room temperature
T1 construct: human recombinant HER2 kinase (Lys676-Val1255, GST fusion); GST
Method: The HER2 kinase enzyme inhibitory activity of a compound of the present invention was evaluated by using a purified human recombinant HER2 kinase (Lys676-Val1255, GST fusion) and a synthetic peptide as a substrate, and detecting the phosphorylation level of the substrate by the HTRF method (homogeneous time resolved fluorescence method). Specifically, 25 ng/well of activated HER2, 200 μM of ATP, 200 ng/well of FLT3 analogous peptide (biotin label, peptide sequence is AGGSSDNEYFYVDF), and test compound (final concentration 0.01 nM to 30 μM) were mixed in kinase reaction buffer (60 mM HEPES, 5 mM MgCl2, 5 mM MnCl2, 3 mM Na3VO4, 1.25 mM DTT, pH 7.5) to prepare 50 μL/well of total reaction volume, and the mixture was reacted for 60 minutes at room temperature. Then, the phosphorylation reaction was stopped and HTRF reaction was carried out by adding 25 μL/well of PBS solution comprising the following components and reacting the mixture for 12 to 16 hours at 4° C. The following components were dissolved in PBS (pH 7.0) to prepare the PBS solution composition: 60 mM EDTA (final concentration 20 mM), 1.2 M KF (final concentration […]), 1 mg/mL BSA (final concentration 333 μg/mL), 6 μg/mL anti-PY20-Cryptate (Cisbio international, France, final concentration 2 μg/mL), and 15 μg/mL Streptavidin labeled with XL665 (Cisbio international, France, final concentration 5 μg/mL).

[3] = system: HER2 overexpressed gastric cancer cell line; experiment: In vivo anti-tumor effect, subcutaneous tumor transplant in nude mouse; conditions: dosage 60 mg/kg, oral, daily except Saturday and Sunday, 2 to 4 weeks, read-out: Tumor growth inhibition ratio (%)
Method: The anti-tumor effect in vivo of a compound of the present invention was evaluated using a HER2 overexpressed gastric cancer cell line. Specifically, a tumor fragment with about 5 mm square was transplanted subcutaneously using a transplantation needle, or an appropriate number of tumor cells was suspended in saline (Otsuka Pharmaceutical Co., Ltd.) and transplanted under the skin of the right axillary region of a nude mouse using a glass syringe equipped with a two-stage needle for subcutaneous injection. After the confirmation of the engraftment of the transplanted tumors, the mice were classified into groups depending on the tumor volume. The test compounds: the Example Compounds 1-1, 1-2, 1-5, 1-8, 1-13, 1-14, 1-15, 1-19, 1-20, 1-22, 2-1, 2-3, and 3-2 were each dissolved or suspended in an appropriate medium and orally administered forcedly to a mouse. The period of administration was varied from 2 weeks to 4 weeks depending on tumor, and the administration was carried out daily with drug holidays of Saturday and Sunday. The major axis (mm) and the minor axis (mm) of a tumor were measured sequentially using an electronic digital vernier caliper, and evaluated by the tumor growth inhibition ratio (GI %) on the judgement day (in principle, the next day of the final administration) using the following calculating formula.
A: Average tumor volume on the judgement day of the group to which a compound was administered (*)
B: Average tumor volume on the judgement day of the untreated control group (*)
*: The tumor volume is calculated by ½×[major axis of tumor]×[minor axis of tumor]^2.

T1 sequence (P04626 676-1255): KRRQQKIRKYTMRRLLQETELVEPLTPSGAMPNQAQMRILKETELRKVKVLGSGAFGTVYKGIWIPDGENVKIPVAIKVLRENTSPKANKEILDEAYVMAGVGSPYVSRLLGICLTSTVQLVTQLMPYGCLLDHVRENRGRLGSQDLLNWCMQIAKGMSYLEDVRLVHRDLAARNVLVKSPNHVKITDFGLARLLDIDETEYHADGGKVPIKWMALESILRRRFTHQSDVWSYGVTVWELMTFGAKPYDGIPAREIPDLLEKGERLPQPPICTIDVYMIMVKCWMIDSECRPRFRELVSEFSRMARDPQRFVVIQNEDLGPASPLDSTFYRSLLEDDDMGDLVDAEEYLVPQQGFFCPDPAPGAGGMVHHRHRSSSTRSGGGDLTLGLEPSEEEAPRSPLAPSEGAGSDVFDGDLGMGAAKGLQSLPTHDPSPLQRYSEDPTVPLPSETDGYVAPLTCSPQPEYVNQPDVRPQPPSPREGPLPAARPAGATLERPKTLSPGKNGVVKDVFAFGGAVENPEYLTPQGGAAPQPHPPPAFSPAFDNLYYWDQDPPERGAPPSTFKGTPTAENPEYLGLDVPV

IC50 [2]: < 10 nM
Compound: C#CCNC1CCN(Cc2c[nH]c3ncnc(Nc4cccc(C#C)c4)c23)CC1 [Example 3-2, (3-Ethynylphenyl) [5-(4-prop-2-ynylaminopiperidin-1-ylmethyl)-7H-pyrrolo[2,3-d]pyrimidin-4-yl]amine]
GI50 [1]: < 20 nM
inhibition in vivo at 60 mg/kg [3]: 91%

— patent US20120149902A1, “PYRROLO[2,3-D]PYRIMIDINE DERIVATIVE” (UBE INDUSTRIES, LTD., priority 2009, published 2012)
